Measured values: ChEMBL document CHEMBL5241070, “Overview of all-trans-retinoic acid (ATRA) and its analogues: Structures, activities, and mechanisms in acute promyelocytic leukaemia” (Eur J Med Chem, 2021)
In brackets after ≈: the same amount, converted by molar mass.

Experiments:
Staphylococcus aureus = experiment: Antibacterial activity against methicillin-resistant Staphylococcus aureus assessed as bacterial growth inhibition; format: functional
ME-180 [1] = experiment: Antiproliferative activity against human ME-180 cells assessed as inhibition of cell growth by [3H]-thymidine incorporation based liquid scintillation counter analysis; format: functional
HT-29 = experiment: Antiproliferative activity against human HT-29 cells assessed as inhibition of cell growth measured after 48 hrs by MTT assay; format: functional
PC-3 = experiment: Antiproliferative activity against human PC-3 cells assessed as inhibition of cell growth measured after 24 hrs by MTT assay; format: functional
NB-4 = experiment: Antiproliferative activity against human NB-4 cells assessed as inhibition of cell growth measured after 96 hrs by MTT assay; format: functional
ME-180 [2] = experiment: Antiproliferative activity against human ME-180 cells assessed as inhibition of cell growth; format: functional
[3] = Antiproliferative activity against human UM-SCC-38 cells assessed as inhibition of cell growth; format: functional, cell-based
Y79 = experiment: Antiproliferative activity against human Y79 cells assessed as inhibition of cell growth measured after 72 hrs by MTT assay; format: functional
SCL-1 = experiment: Induction of apoptosis in human SCL-1 cells by flow cytometry assay; format: functional; details: read-out: MEC
HL-60 = experiment: Antiproliferative activity against human HL-60 cells assessed as cell growth inhibition measured after 72 hrs by trypan blue staining based assay; format: functional
[4] = Antiproliferative activity against human A2774 cells assessed as inhibition of cell growth measured after 72 hrs by XTT assay; format: functional
MOLM-13 = experiment: Antiproliferative activity against human MOLM-13 cells assessed as inhibition of cell growth measured after 96 hrs by WST-8 assay; format: functional
MCF7 = experiment: Antiproliferative activity in human MCF7 cells assessed as cell growth inhibition measured after 72 hrs by cell counting assay; format: functional
[5] = Antiproliferative activity against human U87MG Human EGFR vIII cells assessed as inhibition of cell growth measured after 24 hrs by MTT assay; format: functional
A-375 = experiment: Antiproliferative activity against human A-375 cells assessed as inhibition of cell growth measured after 24 hrs by WST-8 assay; format: functional
A2780 = experiment: Antiproliferative activity against human A2780 cells assessed as inhibition of cell growth measured after 72 hrs by SRB assay; format: functional, cell-based; details: A2780, 72 h
ME-180 [6] = experiment: Antiproliferative activity against human ME-180 ells assessed as inhibition of cell growth; format: functional, cell-based
MDA-MB-231 = experiment: Antiproliferative activity against human MDA-MB-231 cells assessed as inhibition of cell growth; format: functional, cell-based

In the case of `O=C(O)/C=C/c1ccc(-c2ccc(O)c(C34CC5CC(CC(C5)C3)C4)c2)cc1` [ADAROTENE], the MIC (Staphylococcus aureus) is reported as 1 mg/L (≈ 2.67 µM).

`O=C(O)c1ccc(-c2ccc3cc(O)c(C45CC6CC(CC(C6)C4)C5)cc3c2)cc1` showed an MIC (Staphylococcus aureus) of 1 mg/L (≈ 2.51 µM).

For `CC(/C=C/C=C(\C)c1cc(C(C)(C)C)cc(C(C)(C)C)c1)=C\C(=O)O`, the IC50 (ME-180 [1]) was 0.001 µM.

In the case of `CC1=C(/C=C/C(C)=C/C=C/C(C)=C/C(=O)O)C(C)(C)CCC1` [TRETINOIN], the CC50 (HT-29) is reported as 4.3 µM, the CC50 (PC-3) is reported as 12.7 µM and the CC50 (NB-4) is reported as 1.5 µM. It also gave a CC50 (ME-180 [2]) of 0.08 µM, an IC50 [3] of 5 µM and an MCC (Y79) of 2000 nM. For the same molecule, the minimal effective concentration (SCL-1) was no more than 10 µM, the CC50 (HL-60) was 0.023 µM and the CC50 [4] was 0.082 µM. It also gave a CC50 (MOLM-13) of 1.24 µM, a CC50 (MCF7) of 0.02 µM and an MCC [5] of 40 µM. The MCC (A-375) was greater than 100 µM.

Molecule `O=C(O)c1ccc2cc(-c3ccc(O)c(C45CC6CC(CC(C6)C4)C5)c3)ccc2c1` [O-DEMETHYLATED ADAPALENE] has an MIC (Staphylococcus aureus) of 1 mg/L (≈ 2.51 µM).

For `CC1=C(/C=C/C(C)=C/C=C/C(C)=C/C(=O)Nc2ccc(O)cc2)C(C)(C)CC/C1=N\OCC(=O)O`, the IC50 (A2780) was 0.97 µM.

`C/C(=C/C=C/C(C)=C/C(=O)O)c1cc(C(C)(C)C)cc(C(C)(C)C)c1` gave an IC50 (ME-180 [6]) of 0.02 µM.

In the case of `CCCC(=O)OCc1ccc(OC(=O)/C=C(C)/C=C/C=C(C)/C=C/C2=C(C)CCCC2(C)C)cc1`, the GI50 (MDA-MB-231) is reported as 0.01 µM.

`CC1=C(/C=C/C(C)=C/C=C/C(C)=C/C(=O)Nc2ccc(F)cc2)C(C)(C)CCC1n1ccnc1` (stereo unspecified) gave an IC50 (MDA-MB-231) of 0.89 µM.
